Assay results taken from patent US9856242B2, “5-fluoro-N-(pyridin-2-yl)pyridin-2-amine derivatives containing a sulfone group” (Bayer Pharma Aktiengesellschaft, priority 2014, dated 2018).

Assays:
[1] = biological target: T1, CDK9/CycT1 (Homo sapiens, UniProt P50750); test: CDK9/CycT1 high ATP kinase assay (Method 1b, TR-FRET, 2 mM ATP); format: biochemical; details: for IC50: Method 1b, 2 mM ATP; for Selectivity high ATP CDK9/high ATP CDK2: according to Methods 1b and 2b (ratio of high ATP CDK2 IC50 to high ATP CDK9 IC50)
T1 construct: Recombinant full-length His-tagged human CDK9 and CycT1; His; purchased Invitrogen PV4131; host or cells: insect cells
Procedure: 1b. CDK9/CycT1 High ATP Kinase Assay
CDK9/CycT1-inhibitory activity of compounds of the present invention at a high ATP concentration after preincubation of enzyme and test compounds was quantified employing the CDK9/CycT1 TR-FRET assay as described in the following paragraphs.
Recombinant full-length His-tagged human CDK9 and CycT1, expressed in insect cells and purified by Ni-NTA affinity chromatography, were purchase from Invitrogen (Cat. No PV4131). As substrate for the kinase reaction biotinylated peptide biotin-Ttds-YISPLKSPYKISEG (C-terminus in amid form) was used which can be purchased e.g. form the company JERINI peptide technologies (Berlin, Germany). For the assay 50 n1 of a 100 fold concentrated solution of the test compound in DMSO was pipetted into a black low volume 384 well microtiter plate (Greiner Bio-One, Frickenhausen, Germany), 2 μl of a solution of CDK9/CycT1 in aqueous assay buffer [50 mM Tris/HCl pH 8.0, 10 mM MgCl2, 1.0 mM dithiothreitol, 0.1 mM sodium ortho-vanadate, 0.01% (v/v) Nonidet-P40 (Sigma)] were added and the mixture was incubated for 15 min at 22° C. to allow pre-binding of the test compounds to the enzyme before the start of the kinase reaction. Then the kinase reaction was started by the addition of 3 μl of a solution of adenosine-tri-phosphate (ATP, 3.3 mM=>final conc. in the 5 μl assay volume is 2 mM) and substrate (1.67 μM=>final conc. in the 5 μl assay volume is 1 μM) in assay buffer and the resulting mixture was incubated for a reaction time of 25 min at 22° C. The concentration of CDK9/CycT1 was adjusted depending of the activity of the enzyme lot and was chosen appropriate to have the assay in the linear range, typical concentrations were in the range of 0.5 μg/mL. The reaction was stopped by the addition of 5 μl of a solution of TR-FRET detection reagents (0.2 μM streptavidine-XL665 [Cisbio Bioassays, Codolet, France] and 1 nM anti-RB(pSer807/pSer811)-antibody from BD Pharmingen [#558389] and 1.2 nM LANCE EU-W1024 labeled anti-mouse IgG antibody [Perkin-Elmer, product no. AD0077]) in an aqueous EDTA-solution (100 mM EDTA, 0.2% (w/v) bovine serum albumin in 100 mM HEPES/NaOH pH 7.0).
The resulting mixture was incubated 1 h at 22° C. to allow the formation of complex between the phosphorylated biotinylated peptide and the detection reagents. Subsequently the amount of phosphorylated substrate was evaluated by measurement of the resonance energy transfer from the Eu-chelate to the streptavidine-XL. Therefore, the fluorescence emissions at 620 nm and 665 nm after excitation at 350 nm was measured in a HTRF reader, e.g. a Rubystar (BMG Labtechnologies, Offenburg, Germany) or a Viewlux (Perkin-Elmer). The ratio of the emissions at 665 nm and at […] was taken as the measure for the amount of phosphorylated substrate. The data were normalised (enzyme reaction without inhibitor=0% inhibition, all other assay components but no enzyme=100% inhibition).

[2] = biological target: T2, CDK2/CycE (Homo sapiens, UniProt P24941); test: CDK2/CycE high ATP kinase assay (Method 2b, TR-FRET, 2 mM ATP); format: biochemical
T2 construct: GST; purchased ProQinase GmbH (Freiburg, Germany); host or cells: insect cells (Sf9)
Procedure: 2b. CDK2/CycE High ATP Kinase Assay
CDK2/CycE-inhibitory activity of compounds of the present invention at 2 mM adenosine-tri-phosphate (ATP) was quantified employing the CDK2/CycE TR-FRET (TR-FRET=Time Resolved Fluorescence Energy Transfer) assay as described in the following paragraphs.
Recombinant fusion proteins of GST and human CDK2 and of GST and human CycE, expressed in insect cells (Sf9) and purified by Glutathion-Sepharose affinity chromatography, were purchase from ProQinase GmbH (Freiburg, Germany). As substrate for the kinase reaction biotinylated peptide biotin-Ttds-YISPLKSPYKISEG (C-terminus in amid form) was used which can be purchased e.g. form the company JERINI peptide technologies (Berlin, Germany). […]
The resulting mixture was incubated 1 h at 22° C. to allow the formation of complex between the phosphorylated biotinylated peptide and the detection reagents. Subsequently the amount of phosphorylated substrate was evaluated by measurement of the resonance energy transfer from the Eu-chelate to the streptavidine-XL. Therefore, the fluorescence emissions at 620 nm and 665 nm after excitation at 350 nm wer measured in a TR-FRET reader, e.g. a Rubystar (BMG Labtechnologies, Offenburg, Germany) or a Viewlux (Perkin-Elmer). […]

T1 sequence (P50750 whole entry): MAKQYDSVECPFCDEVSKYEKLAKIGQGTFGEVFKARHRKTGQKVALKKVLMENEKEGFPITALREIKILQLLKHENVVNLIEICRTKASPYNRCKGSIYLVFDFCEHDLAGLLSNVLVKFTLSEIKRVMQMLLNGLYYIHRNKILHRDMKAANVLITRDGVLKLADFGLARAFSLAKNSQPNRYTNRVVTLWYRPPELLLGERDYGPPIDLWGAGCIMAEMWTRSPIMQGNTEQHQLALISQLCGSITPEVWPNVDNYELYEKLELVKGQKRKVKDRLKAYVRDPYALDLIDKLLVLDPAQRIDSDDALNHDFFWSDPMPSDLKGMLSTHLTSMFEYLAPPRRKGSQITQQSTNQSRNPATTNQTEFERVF
T1 sequence (O60563 whole entry partner): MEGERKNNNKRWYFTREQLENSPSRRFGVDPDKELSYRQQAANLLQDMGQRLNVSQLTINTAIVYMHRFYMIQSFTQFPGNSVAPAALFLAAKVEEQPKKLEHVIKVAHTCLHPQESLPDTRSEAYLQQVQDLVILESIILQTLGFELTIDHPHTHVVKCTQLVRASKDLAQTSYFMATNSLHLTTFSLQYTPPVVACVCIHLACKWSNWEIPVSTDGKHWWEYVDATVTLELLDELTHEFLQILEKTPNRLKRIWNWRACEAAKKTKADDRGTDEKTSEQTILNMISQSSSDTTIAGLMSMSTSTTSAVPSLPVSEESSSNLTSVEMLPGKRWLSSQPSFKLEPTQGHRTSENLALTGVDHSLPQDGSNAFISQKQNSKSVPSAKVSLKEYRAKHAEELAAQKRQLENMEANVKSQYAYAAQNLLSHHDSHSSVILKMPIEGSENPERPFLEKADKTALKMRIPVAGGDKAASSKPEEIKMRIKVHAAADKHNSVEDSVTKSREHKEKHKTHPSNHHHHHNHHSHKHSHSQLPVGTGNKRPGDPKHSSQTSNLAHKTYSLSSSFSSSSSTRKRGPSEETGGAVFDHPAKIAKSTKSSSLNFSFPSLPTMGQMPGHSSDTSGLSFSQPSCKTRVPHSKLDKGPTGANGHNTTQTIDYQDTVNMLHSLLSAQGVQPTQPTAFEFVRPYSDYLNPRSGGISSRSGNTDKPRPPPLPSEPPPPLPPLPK

CS(=O)(=O)Cc1ccnc(Nc2cc(-c3cccc4ccoc34)c(F)cn2)c1 [Example 5, 4-(1-Benzofuran-7-yl)-5-fluoro-N-{4-[(methylsulfonyl)methyl]pyridin-2-yl}pyridin-2-amine]
IC50 [1]: 2 nM

Cc1cc(CS(C)(=O)=O)cc(Nc2cc(-c3ccc(F)c4ccoc34)c(F)cn2)n1 [Example 3, 5-Fluoro-4-(4-fluoro-1-benzofuran-7-yl)-N-{6-methyl-4-[(methylsulfonyl)methyl]pyridin-2-yl}pyridin-2-amine]
IC50 [1]: 0.9 nM

CS(=O)(=O)Cc1ccnc(Nc2cc(-c3ccc(F)c4ccoc34)c(F)cn2)c1 [Example 1, 5-Fluoro-4-(4-fluoro-1-benzofuran-7-yl)-N-{4-[(methylsulfonyl)methyl]pyridin-2-yl}pyridin-2-amine]
IC50 [1]: 2 nM
Selectivity high ATP CDK9/high ATP CDK2 [1]: 268
IC50 [2]: 535 nM

CS(=O)(=O)Cc1cc(F)nc(Nc2cc(-c3ccc(F)c4ccoc34)c(F)cn2)c1 [Example 2, 5-Fluoro-4-(4-fluoro-1-benzofuran-7-yl)-N-{6-fluoro-4-[(methylsulfonyl)methyl]pyridin-2-yl}pyridin-2-amine]
IC50 [1]: 1 nM
Selectivity high ATP CDK9/high ATP CDK2 [1]: 517
IC50 [2]: 517 nM

CS(=O)(=O)Cc1cc(Nc2cc(-c3ccc(F)c4ccoc34)c(F)cn2)nc(C(F)(F)F)c1 [Example 4, 5-Fluoro-4-(4-fluoro-1-benzofuran-7-yl)-N-{4-[(methylsulfonyl)methyl]-6-(trifluoromethyl)pyridin-2-yl}pyridin-2-amine]
IC50 [1]: 4 nM
